From US11571423B2, “Small molecule modulators of human sting” (Curadev Pharma Limited, priority 2017, dated 2023) come the findings set out here.

Read-outs that look alike come from different tables or passages of the source. Where only a bound is given, the exact number is not on record here.

The EC50 is the concentration at which the effect is half-maximal.

One assay concerns the target hSTING(R232) (Homo sapiens, UniProt Q86WV6, H232R). The experiment in a line: Luciferase reporter assay in HEK293T-hSTING-Luciferase cells, R232 (wild type) human STING. The class given is cell-based. To be noted: 20 hr stimulation, read-out: R232 human activity (EC50 range). The method in brief: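 After 20 hr compound stimulation of 5×10^5 cells, secreted luciferase in the supernatant was measured by luminescence; values are fold-induction over baseline and EC50. The line is a clonal HEK293T stably carrying a STING plasmid (pUNO-1) and a luciferase reporter under five tandem ISREs fused to an ISG54 promoter.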

Assay [1] has as its target cynomolgus monkey STING protein (Macaca fascicularis, UniProt A0A2R3XZA6). The experiment in a line: Luciferase reporter assay, cynomolgus monkey STING overexpressed in HEK293T cells. In kind it is cell-based. On the procedure: 5×10^5 clonally selected HEK293T-hSTING-Luciferase cells were seeded in 384-well plates in growth medium and stimulated with novel compounds. After 20 hr of stimulation supernatant were removed and secretary reporter gene activity were measured using the Quanti-Luc detection system (Invivogen) on a Spectramax i3X luminometer.
In the tables below, EC50 value ranges for exemplary compounds are given.
Selected compounds were further tested against cynomolgus monkey STING protein overexpressed in HEK293T cells.
In general terms: A reporter such as luciferase makes a cellular process visible.

[2] abbreviates: cynomolgus monkey STING overexpressed in HEK293T cells, read-out: Cynomolgus monkey STING activity (EC50 range).

hSTING(R232), sequence (Q86WV6 whole entry H232R, the tested form may be a part): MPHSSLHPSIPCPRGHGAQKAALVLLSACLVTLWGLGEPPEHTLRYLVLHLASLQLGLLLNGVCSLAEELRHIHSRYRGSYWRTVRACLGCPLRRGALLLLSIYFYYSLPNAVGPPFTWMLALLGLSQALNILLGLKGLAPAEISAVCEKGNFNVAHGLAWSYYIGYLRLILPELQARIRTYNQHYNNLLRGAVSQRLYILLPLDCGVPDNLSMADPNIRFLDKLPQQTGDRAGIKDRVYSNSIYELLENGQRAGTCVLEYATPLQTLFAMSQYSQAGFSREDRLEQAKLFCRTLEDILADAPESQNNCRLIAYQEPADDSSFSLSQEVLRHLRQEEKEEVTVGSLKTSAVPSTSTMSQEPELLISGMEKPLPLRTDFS
cynomolgus monkey STING protein, sequence (A0A2R3XZA6 entry or part of it): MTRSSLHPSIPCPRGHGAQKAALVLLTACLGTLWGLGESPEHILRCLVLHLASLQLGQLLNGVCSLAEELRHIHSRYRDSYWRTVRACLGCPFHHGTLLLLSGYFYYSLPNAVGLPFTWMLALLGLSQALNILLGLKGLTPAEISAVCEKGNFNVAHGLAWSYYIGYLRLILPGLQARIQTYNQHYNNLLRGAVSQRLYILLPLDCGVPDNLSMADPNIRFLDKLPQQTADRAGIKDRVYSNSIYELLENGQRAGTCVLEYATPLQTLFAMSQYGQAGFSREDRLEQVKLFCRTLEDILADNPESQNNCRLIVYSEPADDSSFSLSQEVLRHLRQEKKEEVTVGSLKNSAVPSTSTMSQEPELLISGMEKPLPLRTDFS

In the case of `C[C@H]1c2ccc(C(=O)NCc3c(F)cc(F)cc3F)cc2N(Cc2c(F)cc(OCCCOP(=O)(O)O)cc2F)C(=O)N1C` [Example 82, (S)-3-(4-((3,4-dimethyl-2-oxo-7-((2,4,6-trifluorobenzyl)carbamoyl)-3,4-dihydroquinazolin-1(2H)-yl)methyl)-3,5-difluorophenoxy)propyl dihydrogen phosphate], the EC50 (at hSTING(R232); in assay [1] (setting [2])) was below 1 µM throughout.

Consider `C[C@H]1c2ccc(C(=O)NCc3c(F)cc(F)cc3F)cc2N(Cc2c(F)cc(OCOP(=O)(O)O)cc2F)C(=O)N1C` [Example 83, (S)-(4-((3,4-dimethyl-2-oxo-7-((2,4,6-trifluorobenzyl)carbamoyl)-3,4-dihydroquinazolin-1(2H)-yl)methyl)-3,5-difluorophenoxy)methyl dihydrogen phosphate], for which the half-maximal effective concentration (EC50) (at hSTING(R232); in assay [1] (setting [2])) was below 1 µM throughout.

As for `C[C@H]1c2ccc(C(=O)NCc3c(F)cc(F)cc3F)cc2N(Cc2c(F)cc(OP(=O)(O)O)cc2F)C(=O)N1C` [Example 84, (S)-4-((3,4-Dimethyl-2-oxo-7-((2,4,6-trifluorobenzyl)carbamoyl)-3,4-dihydroquinazolin-1(2H)-yl)methyl)-3,5-difluorophenyl dihydrogen phosphate], the EC50 (on hSTING(R232); in assay [1] (setting [2])) was below 1 µM each time.

For `C[C@H]1c2ccc(C(=O)NCc3c(F)cc(F)cc3F)cc2N(Cc2c(F)cc(OC(=O)N(C)CCC(=O)OCc3ccccc3)cc2F)C(=O)N1C` [Example 86, (S)-Benzyl-3-(((4-((3,4-dimethyl-2-oxo-7-((2,4,6-trifluorobenzyl)carbamoyl)-3,4-dihydroquinazolin-1(2H)-yl)methyl)-3,5-difluorophenoxy)carbonyl)(methyl)amino)propanoate], the concentration giving a half-maximal response (EC50) (on hSTING(R232); in assay [1]) was 1 to 10 µM each time.

Consider `C[C@H]1c2ccc(C(=O)NCc3c(F)cc(F)cc3F)cc2N(Cc2c(F)ccc(OP(=O)(O)O)c2Cl)C(=O)N1C` [Example 89, (S)-2-Chloro-3-((3,4-dimethyl-2-oxo-7-((2,4,6-trifluorobenzyl)carbamoyl)-3,4-dihydroquinazolin-1(2H)-yl)methyl-4-fluorophenyldihydrogen phosphate], for which the EC50 (on hSTING(R232); in assay [1] (setting [2])) was below 1 µM in each case.

`C[C@H]1c2ccc(C(=O)NCc3c(F)cc(F)cc3F)cc2N(Cc2c(F)ccc(OCOP(=O)(O)O)c2Cl)C(=O)N1C` [Example 90, (S)-(2-Chloro-3-((3,4-dimethyl-2-oxo-7-((2,4,6-trifluorobenzyl)carbamoyl)-3,4-dihydroquinazolin-1(2H)-yl)methyl)-4-fluorophenoxy)methyl dihydrogen phosphate]: the 50% effective concentration (EC50) (at hSTING(R232); in assay [1] (setting [2])) was below 1 µM throughout.

As for `C[C@H]1c2ccc(C(=O)NCc3c(F)cc(F)cc3F)cc2N(Cc2c(F)cc(F)cc2OCCCOP(=O)(O)O)C(=O)N1C` [Example 94, (S)-3-(2-((3,4-dimethyl-2-oxo-7-((2,4,6-trifluorobenzyl)carbamoyl)-3,4-dihydroquinazolin-1(2H)-yl)methyl)-3,5-difluorophenoxy)propyl dihydrogen phosphate], the results for the EC50 (at hSTING(R232); in assay [1] (setting [2])) were below 1 µM and above 10 µM, respectively.

Regarding `C[C@H]1c2ccc(C(=O)NCc3c(F)cc(F)cc3F)cc2N(Cc2c(F)ccc(OCCOP(=O)(O)O)c2Cl)C(=O)N1C` [Example 95, (S)-2-(2-chloro-3-((3,4-dimethyl-2-oxo-7-((2,4,6-trifluorobenzyl)carbamoyl)-3,4-dihydroquinazolin-1(2H)-yl)methyl)-4-fluorophenoxy)ethyl dihydrogen phosphate], the results for the 50% effective concentration (EC50) (on hSTING(R232); in assay [1] (setting [2])) were below 1 µM and above 10 µM, respectively.

Consider `C[C@H]1c2ccc(C(=O)NCc3c(F)cc(F)cc3F)cc2N(Cc2c(F)ccc(OCCCOP(=O)(O)O)c2Cl)C(=O)N1C` [Example 96, (S)-3-(2-chloro-3-((3,4-dimethyl-2-oxo-7-((2,4,6-trifluorobenzyl)carbamoyl)-3,4-dihydroquinazolin-1(2H)-yl)methyl)-4-fluorophenoxy)propyl dihydrogen phosphate], for which the concentration for a half-maximal effect (EC50) at hSTING(R232) is below 1 µM; in assay [1] (setting [2]), above 10 µM.

For `C[C@H]1c2ccc(C(=O)NCc3c(F)cc(F)cc3F)cc2N(Cc2c(F)cc(OCCOP(=O)(O)O)cc2F)C(=O)N1C` [Example 97, (S)-2-(4-((3,4-dimethyl-2-oxo-7-((2,4,6-trifluorobenzyl)carbamoyl)-3,4-dihydroquinazolin-1(2H)-yl)methyl)-3,5-difluorophenoxy)ethyl dihydrogen phosphate], the EC50 (at hSTING(R232); in assay [1] (setting [2])) was below 1 µM throughout.

As for `C[C@H]1c2ccc(C(=O)NCc3c(F)cc(OP(=O)(O)O)cc3F)cc2N(Cc2c(F)cccc2Cl)C(=O)N1C` [Example 101, (S)-4-((1-(2-chloro-6-fluorobenzyl)-3,4-dimethyl-2-oxo-1,2,3,4-tetrahydroqinazoline-7-carboxamido)methyl)-3,5-difluorophenyl dihydrogen phosphate], the EC50 (on hSTING(R232); in assay [1] (setting [2])) was 1 to 10 µM in each case.

In the case of `C[C@H]1c2ccc(C(=O)NCc3c(F)cc(F)cc3F)cc2N(Cc2c(F)ccc(OP(=O)(O)O)c2F)C(=O)N1C` [Example 102, (S)-3-((3,4-dimethyl-2-oxo-7-((2,4,6-trifluorobenzyl)carbamoyl)-3,4-dihydroquinazolin-1(2H)-yl)methyl)-2,4-difluorophenyl dihydrogen phosphate], the EC50 (at hSTING(R232); in assay [1] (setting [2])) was below 1 µM in each case.

Take `C[C@H]1c2ccc(C(=O)NCc3c(F)cc(F)cc3F)cc2N(Cc2c(F)ccc(OCCOP(=O)(O)O)c2F)C(=O)N1C` [Example 103, (S)-2-(3-((3,4-dimethyl-2-oxo-7-((2,4,6-trifluorobenzyl)carbamoyl)-3,4-dihydroquinazolin-1(2H)-yl)methyl)-2,4-difluorophenoxy)ethyl dihydrogen phosphate]: the concentration for a half-maximal effect (EC50) (at hSTING(R232); in assay [1] (setting [2])) was below 1 µM throughout.

Turning to `C[C@H]1c2ccc(C(=O)NCc3c(F)cc(F)cc3F)cc2N(Cc2c(F)cc(F)cc2OP(=O)(O)O)C(=O)N1C` [Example 105, (S)-2-((3,4-dimethyl-2-oxo-7-((2,4,6-trifluorobenzyl)carbamoyl)-3,4-dihydroquinazolin-1(2H)-yl)methyl)-3,5-difluorophenyl dihydrogen phosphate], the EC50 (at hSTING(R232); in assay [1] (setting [2])) was below 1 µM in each case.

For the compound `CC(=O)Nc1ccc(COC(=O)Oc2ccc(F)c(CN3C(=O)N(C)[C@@H](C)c4ccc(C(=O)NCc5c(F)cc(F)cc5F)cc43)c2Cl)cc1` [Example 139, (S)-4-Acetamidobenzyl-(2-chloro-3-((3,4-dimethyl-2-oxo-7-((2,4,6-trifluorobenzyl)carbamoyl)-3,4-dihydroquinazolin-1(2H)-yl)methyl)-4-fluorophenyl) carbonate], the EC50 (on hSTING(R232); in assay [1] (setting [2])) was below 1 µM in each case.

In the case of `C=CCOc1cc(F)c(CN2C(=O)N(C)[C@@H](C)c3ccc(C(=O)NCc4c(F)cc(F)cc4F)cc32)c(F)c1` [Example 144], the EC50 (at hSTING(R232); in assay [1] (setting [2])) was below 1 µM throughout.

`C[C@H]1c2ccc(C(=O)NCc3c(F)cc(F)cc3F)cc2N(Cc2c(F)cc(OCC(O)CO)cc2F)C(=O)N1C` (stereo partly drawn) [Example 145, (4S)-1-(4-(2,3-Dihydroxypropoxy)-2,6-difluorobenzyl)-3,4-dimethyl-2-oxo-N-(2,4,6-trifluorobenzyl)-1,2,3,4-tetrahydroquinazoline-7-carboxamide]: the EC50 (on hSTING(R232); in assay [1] (setting [2])) was below 1 µM in each case.

`C[C@H]1c2ccc(C(=O)NCc3c(F)cc(F)cc3F)cc2N(Cc2c(F)cc(OC[C@H](O)CO)cc2F)C(=O)N1C` [Example 146, (S)-1-(4-((R)-2,3-Dihydroxypropoxy)-2,6-difluorobenzyl)-3,4-dimethyl-2-oxo-N-(2,4,6-trifluorobenzyl)-1,2,3,4-tetrahydroquinazoline-7-carboxamide]: the 50% effective concentration (EC50) (on hSTING(R232); in assay [1] (setting [2])) was below 1 µM each time.

With `COc1cc(F)c(CNC(=O)c2ccc3c(c2)N(Cc2c(F)cc(OC)cc2F)C(=O)N(C)[C@H]3C)c(F)c1` [Example 149, (S)—N,1-bis(2,6-difluoro-4-methoxybenzyl)-3,4-dimethyl-2-oxo-1,2,3,4-tetrahydroquinazoline-7-carboxamide], the EC50 (on hSTING(R232); in assay [1] (setting [2])) was below 1 µM in each case.

Regarding `Cc1cccc(CN2C(=O)N(C)C(C)c3ccc(C(=O)NCc4c(F)cc(F)cc4F)cc32)c1F` (centres unmarked) [Example 164, 1-(2-fluoro-3-methylbenzyl)-3,4-dimethyl-2-oxo-N-(2,4,6-trifluorobenzyl)-1,2,3,4-tetrahydroquinazoline-7-carboxamide], the EC50 (at hSTING(R232); in assay [1] (setting [2])) was below 1 µM throughout.

Consider `COc1cc(F)c(CN2C(=O)N(C)C(C)c3ccc(C(=O)NCc4c(F)cc(F)cc4F)cc32)c(F)c1` (centres unmarked) [Example 165, 1-(2,6-difluoro-4-methoxybenzyl)-3,4-dimethyl-2-oxo-N-(2,4,6-trifluorobenzyl)-1,2,3,4-tetrahydroquinazoline-7-carboxamide], for which the half-maximal effective concentration (EC50) (on hSTING(R232); in assay [1] (setting [2])) was below 1 µM throughout.

With `COc1ccc(F)c(CN2C(=O)N(C)C(C)c3ccc(C(=O)NCc4c(F)cc(F)cc4F)cc32)c1` (centres unmarked) [Example 166, 1-(2-fluoro-5-methoxybenzyl)-3,4-dimethyl-2-oxo-N-(2,4,6-trifluorobenzyl)-1,2,3,4-tetrahydroquinazoline-7-carboxamide], the EC50 on hSTING(R232) is below 1 µM; in assay [1] (setting [2]) it was 1 to 10 µM.
